From patent US10160747B2, “Compounds and methods for kinase modulation, and indications therefor” (Plexxikon Inc., priority 2016, dated 2018)

Columns and labels:
c-KIT = target: T1, c-KIT (Homo sapiens, UniProt P10721); experiment: c-KIT recombinant enzyme kinase assay (AlphaScreen); format: biochemical; details: 100 ATP, 8 pt
T1 construct: purchased Millipore 14-559K
In short: (§1)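 Enzyme plus biotinylated poly(Glu4-Tyr) substrate (30 nM) mixed with compound, then ATP added. Donor beads went in for 20 min at room temperature, then PY20 acceptor beads for 60 min. AlphaScreen read; ATP was 10 μM for FLT3-ITD/D835Y and 100 μM for c-KIT.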

FLT3-D835Y = target: T2, FLT3-D835Y (Homo sapiens, UniProt P36888, D835Y); experiment: FLT3-D835Y recombinant enzyme kinase assay (AlphaScreen); format: biochemical; details: 8 pt, GMean
T2 construct: purchased Invitrogen PV3967
T2 sequence (P36888 27-993 D835Y): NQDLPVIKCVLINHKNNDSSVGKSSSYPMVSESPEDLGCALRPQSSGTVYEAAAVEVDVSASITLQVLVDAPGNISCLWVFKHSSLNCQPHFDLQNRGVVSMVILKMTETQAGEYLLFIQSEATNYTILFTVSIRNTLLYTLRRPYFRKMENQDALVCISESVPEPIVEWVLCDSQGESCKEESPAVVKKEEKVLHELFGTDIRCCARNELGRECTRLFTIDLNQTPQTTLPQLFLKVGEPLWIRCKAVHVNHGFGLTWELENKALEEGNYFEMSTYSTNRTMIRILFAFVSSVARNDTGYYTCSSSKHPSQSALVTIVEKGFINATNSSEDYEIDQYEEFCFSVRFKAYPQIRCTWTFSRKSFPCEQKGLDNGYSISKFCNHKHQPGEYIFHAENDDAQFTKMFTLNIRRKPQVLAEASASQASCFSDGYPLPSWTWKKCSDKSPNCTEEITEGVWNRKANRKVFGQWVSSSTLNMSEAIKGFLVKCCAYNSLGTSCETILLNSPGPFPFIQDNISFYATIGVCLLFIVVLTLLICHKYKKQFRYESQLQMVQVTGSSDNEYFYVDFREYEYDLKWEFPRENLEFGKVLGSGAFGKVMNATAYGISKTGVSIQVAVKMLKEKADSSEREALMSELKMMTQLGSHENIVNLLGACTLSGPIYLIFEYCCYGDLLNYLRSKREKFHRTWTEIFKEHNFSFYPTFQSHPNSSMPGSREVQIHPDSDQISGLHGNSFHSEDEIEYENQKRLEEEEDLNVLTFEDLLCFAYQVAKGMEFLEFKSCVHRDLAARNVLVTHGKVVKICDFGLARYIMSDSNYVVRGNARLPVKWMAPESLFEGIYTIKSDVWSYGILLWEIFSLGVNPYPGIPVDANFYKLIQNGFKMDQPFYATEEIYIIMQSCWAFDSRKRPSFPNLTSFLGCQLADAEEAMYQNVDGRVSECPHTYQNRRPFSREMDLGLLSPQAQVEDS
In short: as §1

T1 sequence (P10721 26-976): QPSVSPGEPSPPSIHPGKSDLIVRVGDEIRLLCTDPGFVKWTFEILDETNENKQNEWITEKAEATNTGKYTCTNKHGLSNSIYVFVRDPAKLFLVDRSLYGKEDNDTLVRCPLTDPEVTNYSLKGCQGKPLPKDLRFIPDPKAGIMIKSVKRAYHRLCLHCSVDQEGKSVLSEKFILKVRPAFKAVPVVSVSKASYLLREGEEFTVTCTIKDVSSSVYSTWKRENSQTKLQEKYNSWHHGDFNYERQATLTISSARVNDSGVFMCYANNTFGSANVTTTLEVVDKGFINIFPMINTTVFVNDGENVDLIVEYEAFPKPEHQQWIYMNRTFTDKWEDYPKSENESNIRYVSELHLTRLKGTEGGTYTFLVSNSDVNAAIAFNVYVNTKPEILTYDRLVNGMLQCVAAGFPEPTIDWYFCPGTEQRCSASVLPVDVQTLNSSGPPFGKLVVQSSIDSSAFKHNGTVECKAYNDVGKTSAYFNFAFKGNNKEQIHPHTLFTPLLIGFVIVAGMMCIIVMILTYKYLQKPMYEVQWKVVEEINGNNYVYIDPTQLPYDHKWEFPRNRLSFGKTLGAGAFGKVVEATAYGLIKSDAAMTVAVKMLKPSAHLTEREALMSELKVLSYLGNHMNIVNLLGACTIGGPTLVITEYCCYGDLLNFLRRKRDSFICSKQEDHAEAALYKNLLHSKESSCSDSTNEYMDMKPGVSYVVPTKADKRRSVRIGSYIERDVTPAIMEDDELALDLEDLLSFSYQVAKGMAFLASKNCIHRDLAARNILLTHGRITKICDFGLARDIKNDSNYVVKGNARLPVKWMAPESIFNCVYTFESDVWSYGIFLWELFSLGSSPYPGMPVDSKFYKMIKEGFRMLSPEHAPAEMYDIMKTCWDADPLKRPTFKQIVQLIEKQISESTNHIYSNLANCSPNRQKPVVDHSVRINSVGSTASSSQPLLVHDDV

| SMILES | IC50 (c-KIT) [µM] | IC50 (FLT3-D835Y) [µM] |
| --- | --- | --- |
| COc1ncc(NC(=O)Cc2cc(F)c(-c3cnc4[nH]cc(F)c4c3)cc2F)cc1C(F)(F)F [Compound P-0051, 2-[2,5-difluoro-4-(3-fluoro-1H-pyrrolo[2,3-b]pyridin-5-yl)phenyl]-N-[6-methoxy-5-(trifluoromethyl)-3-pyridyl]acetamide] | 0.0001 to 10 | 0.0001 to 10 |
| Cn1cnc(Nc2ncc(-c3ccc(CC(=O)Nc4cncc(C(F)(F)F)c4)c(F)c3)cn2)c1 [Compound P-0052, 2-[2-fluoro-4-[2-[(1-methylimidazol-4-yl)amino]pyrimidin-5-yl]phenyl]-N-[5-(trifluoromethyl)-3-pyridyl]acetamide] | 0.0001 to 10 | 0.0001 to 10 |
| O=C(Cc1ccc(-c2cnc3[nH]cc(F)c3c2)cc1F)Nc1cncc(C(F)(F)F)c1 [Compound P-0053, 2-[2-fluoro-4-(3-fluoro-1H-pyrrolo[2,3-b]pyridin-5-yl)phenyl]-N-[5-(trifluoromethyl)-3-pyridyl]acetamide] | 0.0001 to 10 | 0.0001 to 10 |
| CC(=O)c1c[nH]c2ncc(-c3ccc(CC(=O)Nc4cncc(C(F)(F)F)c4)c(F)c3)cc12 [Compound P-0055, 2-[4-(3-acetyl-1H-pyrrolo[2,3-b]pyridin-5-yl)-2-fluoro-phenyl]-N-[5-(trifluoromethyl)-3-pyridyl]acetamide] | 0.0001 to 10 | 0.0001 to 10 |
| Cc1ncc(NC(=O)Cc2ccc(-c3cnc4c(c3)C3(CC3)C(=O)N4)cc2F)cc1C(F)(F)F [Compound P-0057, 2-[2-fluoro-4-(2-oxospiro[1H-pyrrolo[2,3-b]pyridine-3,1′-cyclopropane]-5-yl)phenyl]-N-[6-methyl-5-(trifluoromethyl)-3-pyridyl]acetamide] | 0.0001 to 10 | 0.0001 to 10 |
| O=C(Cc1ccc(-c2cnc(Nc3cnn4ccccc34)nc2)cc1F)Nc1cncc(C(F)(F)F)c1 [Compound P-0058, 2-[2-fluoro-4-[2-(pyrazolo[1,5-a]pyridin-3-ylamino)pyrimidin-5-yl]phenyl]-N-[5-(trifluoromethyl)-3-pyridyl]acetamide] | 0.0001 to 10 | 0.0001 to 10 |
| Cc1ncc(NC(=O)Cc2ccc(-c3cnc4[nH]cc(Cl)c4n3)cc2F)cc1C(F)(F)F [Compound P-0059, 2-[4-(7-chloro-5H-pyrrolo[2,3-b]pyrazin-2-yl)-2-fluoro-phenyl]-N-[6-methyl-5-(trifluoromethyl)-3-pyridyl]acetamide] | 0.0001 to 10 | 0.0001 to 10 |
| O=C(Cc1ccc(-c2cnc3[nH]cc(Cl)c3n2)cc1F)Nc1cnc(Cl)c(C(F)(F)F)c1 [Compound P-0060, 2-[4-(7-chloro-5H-pyrrolo[2,3-b]pyrazin-2-yl)-2-fluoro-phenyl]-N-[6-chloro-5-(trifluoromethyl)-3-pyridyl]acetamide] | 0.0001 to 10 | 0.0001 to 10 |
| O=C(Cc1ccc(-c2cnc3[nH]cc(Cl)c3n2)cc1F)Nc1cncc(C(F)(F)F)c1 [Compound P-0061, 2-[4-(7-chloro-5H-pyrrolo[2,3-b]pyrazin-2-yl)-2-fluoro-phenyl]-N-[5-(trifluoromethyl)-3-pyridyl]acetamide] | 0.0001 to 10 | 0.0001 to 10 |
| Cc1ncc(NC(=O)Cc2ccc(-c3cnc4[nH]cc(F)c4c3)cc2F)cc1C(F)(F)F [Compound P-0062, 2-[2-fluoro-4-(3-fluoro-1H-pyrrolo[2,3-b]pyridin-5-yl)phenyl]-N-[6-methyl-5-(trifluoromethyl)-3-pyridyl]acetamide] | 0.0001 to 10 | 0.0001 to 10 |
| CC(=O)c1c[nH]c2ncc(-c3ccc(CC(=O)Nc4cnc(C)c(C(F)(F)F)c4)c(F)c3)cc12 [Compound P-0063, 2-[4-(3-acetyl-1H-pyrrolo[2,3-b]pyridin-5-yl)-2-fluoro-phenyl]-N-[6-methyl-5-(trifluoromethyl)-3-pyridyl]acetamide] | 0.0001 to 10 | 0.0001 to 10 |
| Cc1ncc(NC(=O)Cc2ccc(-c3cnc(Nc4cnn5ccccc45)nc3)cc2F)cc1C(F)(F)F [Compound P-0065, 2-(2-fluoro-4-(2-(pyrazolo[1,5-a]pyridin-3-ylamino)pyrimidin-5-yl)phenyl)-N-(6-methyl-5-(trifluoromethyl)pyridin-3-yl)acetamide] | 0.0001 to 10 | 0.0001 to 10 |
| Cc1ncc(NC(=O)Cc2ccc(-c3cnc4[nH]nc(C5CC5)c4c3)cc2F)cc1C(F)(F)F [Compound P-0066, 2-(4-(3-cyclopropyl-1H-pyrazolo[3,4-b]pyridin-5-yl)-2-fluorophenyl)-N-(6-methyl-5-(trifluoromethyl)pyridin-3-yl)acetamide] | 0.0001 to 10 | 0.0001 to 10 |
| Cc1ncc(NC(=O)Cc2ccc(-c3cnc4[nH]c(Cl)cc4c3)cc2F)cc1C(F)(F)F [Compound P-0067, 2-[4-(2-chloro-1H-pyrrolo[2,3-b]pyridin-5-yl)-2-fluoro-phenyl]-N-[6-methyl-5-(trifluoromethyl)-3-pyridyl]acetamide] | 0.0001 to 10 | 0.0001 to 10 |
| CCC(=O)c1c[nH]c2ncc(-c3ccc(CC(=O)Nc4cncc(C(F)(F)F)c4)c(F)c3)cc12 [Compound P-0068, 2-[2-fluoro-4-(3-propanoyl-1H-pyrrolo[2,3-b]pyridin-5-yl)phenyl]-N-[5-(trifluoromethyl)-3-pyridyl]acetamide] | 0.0001 to 10 | 0.0001 to 10 |
| CCC(=O)c1c[nH]c2ncc(-c3ccc(CC(=O)Nc4cnc(C)c(C(F)(F)F)c4)c(F)c3)cc12 [Compound P-0070, 2-[2-fluoro-4-(3-propanoyl-1H-pyrrolo[2,3-b]pyridin-5-yl)phenyl]-N-[6-methyl-5-(trifluoromethyl)-3-pyridyl]acetamide] | 0.0001 to 10 | 0.0001 to 10 |
| O=C(Cc1ccc(-c2cnc(Nc3cnn4ccccc34)nc2)c(F)c1)Nc1cncc(C(F)(F)F)c1 [Compound P-0071, 2-[3-fluoro-4-[2-(pyrazolo[1,5-a]pyridin-3-ylamino)pyrimidin-5-yl]phenyl]-N-[5-(trifluoromethyl)-3-pyridyl]acetamide] | 0.0001 to 10 | 0.0001 to 10 |
| O=C(Cc1ccc(-c2cnc3[nH]nc(C4CC4)c3c2)cc1F)Nc1cncc(C(F)(F)F)c1 [Compound P-0072, 2-[4-(3-cyclopropyl-1H-pyrazolo[3,4-b]pyridin-5-yl)-2-fluoro-phenyl]-N-[5-(trifluoromethyl)-3-pyridyl]acetamide] | 0.0001 to 10 | 0.0001 to 10 |
| O=C(Cc1ccc(-c2cnc3[nH]nc(C4CC4)c3c2)cc1)Nc1cncc(C(F)(F)F)c1 [Compound P-0073, 2-[4-(3-cyclopropyl-1H-pyrazolo[3,4-b]pyridin-5-yl)phenyl]-N-[5-(trifluoromethyl)-3-pyridyl]acetamide] | 0.0001 to 10 | 0.0001 to 10 |
| Cc1ncc(NC(=O)Cc2ccc(-c3cnc(Nc4cnn(C)c4C)nc3)cc2F)cc1C(F)(F)F [Compound P-0076, 2-[4-[2-[(1,5-dimethylpyrazol-4-yl)amino]pyrimidin-5-yl]-2-fluoro-phenyl]-N-[6-methyl-5-(trifluoromethyl)-3-pyridyl]acetamide] | 0.0001 to 10 | 0.0001 to 10 |
| Cc1nn(C)cc1Nc1ncc(-c2ccc(CC(=O)Nc3cnc(C)c(C(F)(F)F)c3)c(F)c2)cn1 [Compound P-0077, 2-[4-[2-[(1,3-dimethylpyrazol-4-yl)amino]pyrimidin-5-yl]-2-fluoro-phenyl]-N-[6-methyl-5-(trifluoromethyl)-3-pyridyl]acetamide] | 0.0001 to 10 | 0.0001 to 10 |
| Cn1cnc(Nc2ncc(-c3cc(F)c(CC(=O)Nc4cncc(C(F)(F)F)c4)cc3F)cn2)c1 [Compound P-0078, 2-(2,5-difluoro-4-(2-((1-methyl-1H-imidazol-4-yl)amino)pyrimidin-5-yl)phenyl)-N-(5-(trifluoromethyl)pyridin-3-yl)acetamide] | 0.0001 to 10 | 0.0001 to 10 |
| Cc1ncc(NC(=O)Cc2ccc(-c3cnc4[nH]cc(Cl)c4n3)cc2)cc1C(F)(F)F [Compound P-0079, 2-(4-(7-chloro-5H-pyrrolo[2,3-b]pyrazin-2-yl)phenyl)-N-(6-methyl-5-(trifluoromethyl)pyridin-3-yl)acetamide] | 0.0001 to 10 | 0.0001 to 10 |
| Cn1cc(Nc2ncc(-c3ccc(CC(=O)Nc4cncc(C5CC5)c4)c(F)c3)cn2)cn1 [Compound P-0081, N-(5-cyclopropyl-3-pyridyl)-2-[2-fluoro-4-[2-[(1-methylpyrazol-4-yl)amino]pyrimidin-5-yl]phenyl]acetamide] | 0.0001 to 10 | 0.0001 to 10 |
